Assay [1] deals with T1, Monocarboxylate transporter 2 (Homo sapiens) (UniProt O60669).
T1 sequence (whole entry): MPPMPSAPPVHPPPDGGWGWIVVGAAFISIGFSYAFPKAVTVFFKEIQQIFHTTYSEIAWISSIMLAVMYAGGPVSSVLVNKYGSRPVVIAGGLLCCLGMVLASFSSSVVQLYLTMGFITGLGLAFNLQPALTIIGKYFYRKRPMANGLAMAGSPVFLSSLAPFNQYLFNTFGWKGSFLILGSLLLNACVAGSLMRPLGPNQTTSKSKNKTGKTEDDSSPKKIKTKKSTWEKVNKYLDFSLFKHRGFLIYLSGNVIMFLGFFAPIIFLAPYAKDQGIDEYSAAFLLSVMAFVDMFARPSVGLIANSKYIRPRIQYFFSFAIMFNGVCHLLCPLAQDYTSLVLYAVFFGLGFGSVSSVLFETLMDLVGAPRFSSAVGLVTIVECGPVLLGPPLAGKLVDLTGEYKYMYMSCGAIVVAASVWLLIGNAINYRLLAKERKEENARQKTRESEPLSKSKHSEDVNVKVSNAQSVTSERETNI
Briefly: (§1) TP_TRANSPORTER: inhibition of pyruvate uptake in Xenopus laevis oocytes. The format is functional, cell-based. More on the design: concentration or dose not given beside the values. To be noted: Oocyte.

Assay [2] addresses T2, Monocarboxylate transporter 1 (Rattus norvegicus) (UniProt P53987).
T2 sequence (whole entry): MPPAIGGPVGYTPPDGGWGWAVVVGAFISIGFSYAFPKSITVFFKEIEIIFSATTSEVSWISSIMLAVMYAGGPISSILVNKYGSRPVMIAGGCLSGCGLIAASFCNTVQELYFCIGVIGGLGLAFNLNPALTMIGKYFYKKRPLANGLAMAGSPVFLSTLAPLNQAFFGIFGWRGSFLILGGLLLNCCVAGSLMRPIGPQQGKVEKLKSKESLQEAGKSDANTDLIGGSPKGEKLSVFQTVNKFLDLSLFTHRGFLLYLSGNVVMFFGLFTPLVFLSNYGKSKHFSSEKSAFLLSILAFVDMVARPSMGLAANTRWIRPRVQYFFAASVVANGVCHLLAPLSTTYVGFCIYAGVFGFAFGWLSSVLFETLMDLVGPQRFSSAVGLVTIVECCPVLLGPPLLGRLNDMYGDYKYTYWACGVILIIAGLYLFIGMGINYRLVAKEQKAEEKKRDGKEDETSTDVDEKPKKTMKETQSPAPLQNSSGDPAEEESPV
The description is as §1. The format is functional, cell-based. More on the design: concentration or dose not given beside the values. To be noted: Oocyte.

With `O=C(O)CCCO`, the Activity is 10% in assay [1] and 40% in assay [2].
`CC(O)CC(=O)O` (racemic): the Activity in assay [1] was 30%; in assay [2] it was 20%.
As for `CCC(O)C(=O)O` (racemic), the figures for the Activity in assay [1] and in assay [2] were 10% and 40%, respectively.
With `CC(O)C(=O)[O-].[Na+]` (stereo unspecified), the Activity in assay [1] and in assay [2] was 0% throughout.
Take `C[C@@H](O)C(=O)O`: the Activity in assay [1] is 10%; in assay [2], 30%.
On to `O=C(O)/C=C/c1cccc(O)c1`, for which the Activity was 30% in assay [1] and 20% in assay [2].
The matching figures for `CCOC(=O)/C=C/c1ccc(O)cc1`: 65% and 0%.
Regarding `O=CC[C@@H](O)[C@H](O)[C@H](O)CO`, the Activity result in assay [1] and in assay [2] was “is not an inhibitor [-]” throughout.

These data come from ChEMBL document CHEMBL2073879, “Human monocarboxylate transporter 2 (MCT2) is a high affinity pyruvate transporter” (J Biol Chem, 1998).
